These results are taken from ChEMBL document CHEMBL1158930, “3'-Formyl-2',4',6'-trihydroxy-5'-methyldihydrochalcone, a Prospective New Agrochemical from Psidium acutangulum” (1990).

The structures appear in SMILES notation.

What all share (format): functional
Test [1] deals with Heliothis virescens. The test can be described thus: Antifeedant activity in Heliothis virescens at 24.8 ug/cm'2 after 4 days relative to control.
For test [2], the system named is Heliothis virescens. The test can be described thus: Antifeedant activity in Heliothis virescens at 247.5 ug/cm'2 after 6 days relative to control.
Test [3] deals with Heliothis virescens. The test can be described thus: Antifeedant activity in Heliothis virescens at 76.7 ug/cm'2 after 4 days relative to control.
The test system of test [4] is Heliothis virescens. Description: Antifeedant activity in Heliothis virescens at 247.5 ug/cm'2 after 4 days relative to control.
Test [5] has as its system Heliothis virescens. The test can be described thus: Antifeedant activity in Heliothis virescens at 76.7 ug/cm'2 after 2 days relative to control.
In test [6] the test system is Heliothis virescens. The test can be described thus: Antifeedant activity in Heliothis virescens at 0.25 ug/cm'2 relative to dithane.
The subject of test [7] is Heliothis virescens. Description: Antifeedant activity in Heliothis virescens at 7.7 ug/cm'2 after 6 days relative to control.
In test [8] the test system is Heliothis virescens. The test can be described thus: Antifeedant activity in Heliothis virescens at 24.8 ug/cm'2 after 6 days relative to control.
Test [9] has as its system Heliothis virescens. Description: Antifeedant activity in Heliothis virescens at 7.7 ug/cm'2 after 4 days relative to control.
In test [10] the test system is Heliothis virescens. Description: Antifeedant activity in Heliothis virescens at 24.8 ug/cm'2 after 2 days relative to control.
For test [11], the system named is Heliothis virescens. Description: Antifeedant activity in Heliothis virescens at 7.7 ug/cm'2 after 2 days relative to control.
The subject of test [12] is Heliothis virescens. The test can be described thus: Antifeedant activity in Heliothis virescens at 247.5 ug/cm'2 after 2 days relative to control.
In test [13] the test system is Heliothis virescens. Description: Antifeedant activity in Heliothis virescens at 76.7 ug/cm'2 after 6 days relative to control.

Take `Cc1c(O)c(C=O)c(O)c(C(=O)CCc2ccccc2)c1O`: the Activity with Heliothis virescens [1] turned out to be 60%; in the test with Heliothis virescens [2], 60%; in the test with Heliothis virescens [3], 60%; in the test with Heliothis virescens [4] it was 60%; with Heliothis virescens [5], 90%; in the test on Heliothis virescens [6], 90%. The Activity in the test on Heliothis virescens [7] is 30%; with Heliothis virescens [8], 30%; in the test with Heliothis virescens [9], 60%; with Heliothis virescens [10], 90%; in the test on Heliothis virescens [11], 60%; in the test with Heliothis virescens [12], 90%. The compound also had an Activity in the test on Heliothis virescens [13] of 60%.
